Test results: US10920265B2, “Compounds and methods for detection of enzymes that remove methyl succinyl groups from epsilon-amino lysine moieties” (Enzo Life Sciences, Inc., priority 2011, dated 2021)
*: point of attachment. AMC = Cc1cc(=O)oc2cc(N*)ccc12

What was measured:
SIRT2 = molecular target: T1, SIRT2 (Homo sapiens, UniProt Q8IXJ6); experiment: Sirtuin activity with fluorogenic lysyl substrates; format: biochemical; conditions: 50 μM substrate, 500 μM NAD^+
T1 sequence (Q8IXJ6 1-389): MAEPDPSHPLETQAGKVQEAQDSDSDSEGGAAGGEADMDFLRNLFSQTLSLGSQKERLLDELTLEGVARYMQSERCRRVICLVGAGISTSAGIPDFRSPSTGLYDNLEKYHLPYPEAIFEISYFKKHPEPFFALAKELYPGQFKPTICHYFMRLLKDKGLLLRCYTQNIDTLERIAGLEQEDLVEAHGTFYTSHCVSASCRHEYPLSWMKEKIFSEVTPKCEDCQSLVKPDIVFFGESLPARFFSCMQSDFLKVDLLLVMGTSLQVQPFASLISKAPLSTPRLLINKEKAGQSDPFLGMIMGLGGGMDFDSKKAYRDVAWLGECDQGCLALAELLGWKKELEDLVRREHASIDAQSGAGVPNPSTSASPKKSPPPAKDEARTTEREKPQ
Method in brief: (§1)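 37 °C; recombinant human enzymes or HeLa extract; acetyl-, succinyl- or trifluoroacetyl-lysine AMC substrates (e.g. Ac-Lys(Succ.)-AMC) in SIRT1 fluorometric kit format; trypsin development, AMC fluorescence read-out.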

SIRT4 = molecular target: T2, SIRT4 (Homo sapiens, UniProt Q9Y6E7); experiment: Sirtuin activity with fluorogenic lysyl substrates; format: biochemical; conditions: 50 μM substrate, 500 μM NAD^+
T2 construct: purchased BPS Bioscience 50015
T2 sequence (Q9Y6E7 29-314): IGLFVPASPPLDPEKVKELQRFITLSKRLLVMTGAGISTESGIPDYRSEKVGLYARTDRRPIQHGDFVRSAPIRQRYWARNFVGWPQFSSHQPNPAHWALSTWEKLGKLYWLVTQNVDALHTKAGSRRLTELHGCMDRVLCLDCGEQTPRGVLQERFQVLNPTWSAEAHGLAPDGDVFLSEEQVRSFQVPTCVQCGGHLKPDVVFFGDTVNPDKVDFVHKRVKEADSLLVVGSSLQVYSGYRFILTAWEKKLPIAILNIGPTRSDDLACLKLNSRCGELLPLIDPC
Method in brief: as §1

HeLa cell extracts = experiment: HeLa cell extract Ac-Lys(ε-succinyl)-AMC desuccinylation activity; format: biochemical, human; conditions: 50 μM substrate, 500 μM NAD^+, no inhibitor, 2 hr., 37° C.
Procedure: Enzyme and extract catalog products obtained from ENZO Life Sciences included: HDAC1 (Cat. # BML-SE456), HDAC2 (Cat. # BML-SE500), HDAC3 (Cat. # BML-SE507), HDAC3/NCOR1 Complex (Cat. # BML-SE515), HDAC6 (Cat. # BML-SE508), HDAC8 (Cat. # BML-SE145), HDAC10 (Cat. # BML-SE559), HDAC11 (Cat. # BML-SE560), SIRT1 (Cat. # BML-SE239), SIRT2 (Cat. # BML-SE251), SIRT3 (Cat. # BML-SE270), SIRT5 (Cat. # BML-SE555), HeLa Nuclear Extract (Cat. # BML-KI140), Trypsin (“Fluor de Lys Developer”, 80 mg/ml bovine trypsin in 1 mM HCl, Cat. # BML-KI105 or “Fluor de Lys Developer II”, 80 mg/ml bovine trypsin in 1 mM HCl, Cat. # BML-KI176). […] Enzymes obtained from BPS Bioscience, San Diego, Calif. included: human recombinants SIRT4 (Cat. #50015), SIRT6 (Cat. #50017), SIRT7 (Cat. #50018). HeLa whole cell extract was obtained from HeLa S3 cells (American Type Culture Collection) grown in a medium of MEM/10% fetal bovine serum (FBS) as follows: 1) 9×10^6 cells were suspended by trypsinization, followed by a phosphate buffered saline (PBS) rinse and addition of MEM/10% FBS (1.5 mL) to eliminate trypsin before transfer to a 15 mL conical tube; 2) cells were sedimented by a low speed centrifugation, gently resuspended in PBS and sedimented again and supernatant removed; 3) lysis was induced by resuspension in 0.8 mL 50 mM Tris/HCl, pH 8.0 with the non-denaturing detergent NP-40 (0.5%), placement on ice and brief vortexing every 5 min. for 30 min.; 4) 100 μl of a concentrated salt solution in the same buffer was added in order to bring the final buffer composition to 50 mM Tris/C1, pH 8.0, 137 mM NaCl, 2.7 mM KCl, 1 mM MgCl2, 0.5% NP-40; 5) particulate matter was cleared by centrifugation and the cleared lysate supernatant transferred to a 1.5 mL Eppendorf tube and stored on ice until use in activity assays.
Assays were performed at 37° C., according to the manufacturer's instructions for the “SIRT1 Fluorometric Drug Discovery Kit” from Enzo Life Sciences (ELS) (Cat. # BML-AK555), with exceptions described as follows. […]

SIRT5 = molecular target: T3, SIRT5 (Homo sapiens, UniProt Q9NXA8); conditions: high and uncertain; maximum substrate concentration of 5 mM; read-out: Km estimate; cited from earlier work
T3 sequence (Q9NXA8 37-310): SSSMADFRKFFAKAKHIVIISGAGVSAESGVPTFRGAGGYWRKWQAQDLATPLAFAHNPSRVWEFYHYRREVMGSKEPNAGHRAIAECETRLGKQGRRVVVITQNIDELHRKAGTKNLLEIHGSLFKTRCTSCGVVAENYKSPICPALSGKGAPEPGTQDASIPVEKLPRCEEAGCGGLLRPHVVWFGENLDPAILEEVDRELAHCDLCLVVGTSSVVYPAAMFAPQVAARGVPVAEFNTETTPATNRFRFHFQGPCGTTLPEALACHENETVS

CC(=O)NCCCCC(NC(C)=O)C(=O)Nc1ccc2c(C)cc(=O)oc2c1 (stereo not drawn) [Ac-Lys(Ac.)-AMC, Ac-Lys(ε-acetyl)-AMC, reference compound]
Activity (SIRT2): 0.016 pmol/min/µg
Activity (pmol/min/μg) (SIRT4): Undetectable

CC(=O)N[C@@H](CCCCNC(=O)CCC(=O)O)C(=O)Nc1ccc2c(C)cc(=O)oc2c1 [Compound 1, N—(N^α-acetyl-L-Lysine(N^ε-succinyl))-AMC]
Maximum fluorescence increase over 0 hr./NL (HeLa cell extracts): 22,000
Activity (pmol/min/μg) (SIRT2): Undetectable
Activity (pmol/min/μg) (SIRT4): Undetectable

Ac-Arg-His-Lys-Lys(ε-acetyl)-AMC (Ac-RHKK(Ac)-{AMC}; SMILES CC(=O)NCCCC[C@H](NC(=O)[C@H](CCCCN)NC(=O)[C@H](Cc1c[nH]cn1)NC(=O)[C@H](CCCNC(=N)N)NC(C)=O)C(=O)Nc1ccc2c(C)cc(=O)oc2c1) [Ac-RHKK(Ac)-AMC, p53 peptide fluorogenic deacetylase substrate, Cat. # BML-KI177, reference compound]
Km (SIRT5): 8.9 mM
